The target in one experiment is T1, NOX2 (Homo sapiens, UniProt P04839).
T1 construct: HL-60 cells, rich in NOX2 expression; endogenous in cells; host or cells: DMSO-differentiated HL-60
T1 sequence (P04839 2-570 limits assumed): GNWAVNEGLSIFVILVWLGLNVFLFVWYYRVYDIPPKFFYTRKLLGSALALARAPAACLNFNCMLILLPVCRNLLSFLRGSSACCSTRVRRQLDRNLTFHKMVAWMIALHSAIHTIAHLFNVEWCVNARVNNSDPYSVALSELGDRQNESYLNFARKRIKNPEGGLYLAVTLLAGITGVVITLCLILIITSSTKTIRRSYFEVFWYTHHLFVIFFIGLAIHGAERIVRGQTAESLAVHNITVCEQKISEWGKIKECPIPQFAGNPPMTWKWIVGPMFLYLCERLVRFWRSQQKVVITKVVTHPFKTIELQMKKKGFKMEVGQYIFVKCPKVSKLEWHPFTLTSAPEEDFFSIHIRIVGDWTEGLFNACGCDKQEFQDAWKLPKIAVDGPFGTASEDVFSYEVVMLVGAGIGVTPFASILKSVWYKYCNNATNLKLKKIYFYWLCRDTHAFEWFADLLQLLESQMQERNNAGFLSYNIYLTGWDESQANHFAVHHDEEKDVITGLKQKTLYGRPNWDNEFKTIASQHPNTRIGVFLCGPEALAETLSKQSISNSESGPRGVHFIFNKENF
T1 sequence (P13498 2-195 partner limits assumed): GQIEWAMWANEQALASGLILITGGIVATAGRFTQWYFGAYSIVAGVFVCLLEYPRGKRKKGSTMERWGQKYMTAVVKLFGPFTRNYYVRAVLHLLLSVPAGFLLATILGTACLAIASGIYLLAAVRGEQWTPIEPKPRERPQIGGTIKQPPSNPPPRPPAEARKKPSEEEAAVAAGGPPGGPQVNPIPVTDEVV
The experiment can be described thus: NOX2 HL60 cell-based assay (PMA oxidative burst, L012 chemiluminescence). As to conditions: DMSO-differentiated HL-60 cells, PMA-stimulated; for inhibition at 0.1 µM: HL-60, 100 nM; for inhibition at 1 µM: HL-60, 1000 nM. A digest of the protocol: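 DMSO-differentiated HL-60 cells (2.5×10^5/well) with 100 μM L012 preincubated with compound 30-60 min at 37 °C in the dark. Oxidative burst triggered by 10 ng/mL PMA; superoxide chemiluminescence read every 5 min for 60 min.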

In the next experiment the target is T2, NOX1 (Homo sapiens, UniProt Q9Y5S8).
T2 construct: endogenous in cells; host or cells: HT29
T2 sequence (Q9Y5S8 1-564): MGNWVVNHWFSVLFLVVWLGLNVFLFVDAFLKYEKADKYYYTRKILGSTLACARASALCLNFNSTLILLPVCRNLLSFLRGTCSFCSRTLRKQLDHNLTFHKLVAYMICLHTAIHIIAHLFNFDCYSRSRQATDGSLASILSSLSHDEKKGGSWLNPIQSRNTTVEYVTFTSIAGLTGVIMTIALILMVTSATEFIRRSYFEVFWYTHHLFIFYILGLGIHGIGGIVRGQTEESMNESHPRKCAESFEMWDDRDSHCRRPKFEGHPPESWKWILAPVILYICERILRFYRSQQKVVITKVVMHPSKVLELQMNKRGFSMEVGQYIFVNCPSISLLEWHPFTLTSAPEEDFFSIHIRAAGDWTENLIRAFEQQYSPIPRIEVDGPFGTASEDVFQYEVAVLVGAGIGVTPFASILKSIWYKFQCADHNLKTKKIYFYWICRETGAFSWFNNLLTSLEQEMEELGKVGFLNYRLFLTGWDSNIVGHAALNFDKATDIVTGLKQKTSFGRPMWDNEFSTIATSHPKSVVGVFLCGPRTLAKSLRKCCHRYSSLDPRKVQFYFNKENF
T2 sequence (P13498 2-195 partner limits assumed): T1 sequence (P13498 2-195 partner limits assumed)
The experiment in a line: NOX1 HT29 cell-based assay (luminol/HRP luminescence). As to conditions: HT29 cells, DMSO = 0%, GKT137831 = 100%; for inhibition at 0.1 µM / inhibition at 1 µM: HT-29. A digest of the protocol:
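HT29 cells (1-2×10^5 per well) pretreated 30-60 min at 37 °C with compound at 100 nM and 1000 nM final, in duplicate, 0.1% DMSO. ROS read as luminol (100 μM)/HRP (0.4 U) luminescence. Activity normalised to DMSO (0%) and GKT137831 (100%).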

The target of a further experiment is T3, NOX4 (Homo sapiens, UniProt Q9NPH5).
T3 construct: expressed in transfected cells
T3 sequence (Q9NPH5 1-578): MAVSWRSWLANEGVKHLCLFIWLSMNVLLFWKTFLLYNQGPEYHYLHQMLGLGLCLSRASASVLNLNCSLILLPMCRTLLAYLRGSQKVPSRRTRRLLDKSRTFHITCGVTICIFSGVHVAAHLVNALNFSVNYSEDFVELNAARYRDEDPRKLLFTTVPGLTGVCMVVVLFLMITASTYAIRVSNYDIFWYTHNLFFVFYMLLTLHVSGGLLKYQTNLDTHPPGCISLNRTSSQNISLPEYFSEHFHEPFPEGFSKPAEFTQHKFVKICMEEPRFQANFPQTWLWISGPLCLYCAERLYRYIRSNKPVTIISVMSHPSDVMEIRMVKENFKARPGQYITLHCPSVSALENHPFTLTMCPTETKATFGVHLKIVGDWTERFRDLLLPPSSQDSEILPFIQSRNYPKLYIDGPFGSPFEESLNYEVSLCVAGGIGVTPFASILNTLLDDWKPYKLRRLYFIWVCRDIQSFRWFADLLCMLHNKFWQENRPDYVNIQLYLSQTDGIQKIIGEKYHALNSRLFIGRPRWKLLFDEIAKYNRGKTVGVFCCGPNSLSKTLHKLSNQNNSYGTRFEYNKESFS
T3 sequence (P13498 2-195 partner limits assumed): T1 sequence (P13498 2-195 partner limits assumed)
The experiment can be described thus: NOX4 HEK293 overexpression cell-based assay (Amplex Red H2O2). As to conditions: HEK293 cells stably overexpressing NOX4, DMSO = 0, GKT137831 = 100; for inhibition at 1 µM: HEK293, 1000 nM; for inhibition at 0.1 µM: HEK293, 100 nM. A digest of the protocol: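 HEK293 cells stably overexpressing NOX4 (3×10^4) preincubated 30 min at 37° C with compound in KRPG buffer, then mixed with Amplex Red reagent solution (50 μM Amplex Red, 0.1 units/mL HRP) for 90 min at 37° C in the dark. Supernatant fluorescence read at 530/590 nm; DMSO set to 0 and GKT137831 to 100.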

The structures appear in SMILES notation. Some results are limits rather than exact numbers.

One may read the inhibition as the relative decrease from the control value, in per cent. Lower therefore signals a response near the control. For the compound `COc1cc2[nH]c(-c3ccc(C)cc3)c(O)c(=O)c2cc1OC` [Compound 6], the inhibition at 0.1 µM was at most 19% at NOX2 and at least 80% against NOX1 (100 nM). Besides, the inhibition at 1 µM is at most 19% at NOX2, at least 80% at NOX1 (1000 nM) and 50 to 79% on NOX4. The “% Inhibition NOX4” value on NOX4 (100 nM) is listed as “C (the percent of inhibition of NOX by the compounds ranges from 2000 to 49%)”.

On to `COc1ccc2[nH]c(C(=O)c3ccccc3OC)c(O)c(=O)c2c1` [Compound 34, 3-hydroxy-6-methoxy-2-(2-methoxybenzoyl) quinolin-4(1H)-one], for which the inhibition at 0.1 µM on NOX2, against NOX1 (100 nM) and against NOX4 was at most 19% in each case. Further, the inhibition at 1 µM against NOX2, on NOX1 (1000 nM) and on NOX4 was at most 19% throughout.

With `COc1ccccc1-c1[nH]c2cccc(Br)c2c(=O)c1O` [Compound 25], the results for the inhibition at 0.1 µM against NOX2, on NOX1 (100 nM) and against NOX4 were at most 19%, 50 to 79% and at most 19%, respectively. Moreover, the inhibition at 1 µM was 50 to 79% on NOX2 and at least 80% against NOX1 (1000 nM). Moreover, on NOX4 (1000 nM), the “% Inhibition NOX4” value is reported as “C (the percent of inhibition of NOX by the compounds ranges from 2000 to 49%)”.

`COc1ccc(-c2[nH]c3cc(C(=O)O)ccc3c(=O)c2O)cc1` [Compound 33, 3-hydroxy-2-(4-methoxyphenyl)-4-oxo-1,4-dihydroquinoline-7-carboxylic acid]: the inhibition at 0.1 µM on NOX2 is at most 19%; against NOX1 (100 nM) it was at least 80%; at NOX4 it was at most 19%. In addition, the results for the inhibition at 1 µM against NOX2, on NOX1 (1000 nM) and at NOX4 were 50 to 79%, at least 80% and 50 to 79%, respectively.

As for `COc1cc2[nH]c(-c3ccc(F)cc3)c(O)c(=O)c2cc1OC` [Compound 13], the figures for the inhibition at 0.1 µM against NOX2 and on NOX1 (100 nM) were at most 19% and at least 80%, respectively. For the same compound, the inhibition at 1 µM against NOX2, against NOX1 (1000 nM) and against NOX4 was at least 80% in each case. The “% Inhibition NOX4” value at NOX4 (100 nM) is on record as “C (the percent of inhibition of NOX by the compounds ranges from 2000 to 49%)”.

Take `COc1ccc(-c2c(O)c(=O)c3ccccc3n2C)cc1` [Compound 39]: the inhibition at 0.1 µM on NOX2, against NOX1 (100 nM) and against NOX4 was at most 19% throughout. The inhibition at 1 µM at NOX2 was at most 19%; on NOX1 (1000 nM), at least 80%; against NOX4 it was 50 to 79%.

As for `COc1cc2[nH]c(-c3ccccc3F)c(O)c(=O)c2cc1OC` [Compound 18], the “% Inhibition NOX2” value on NOX2 (100 nM) is given as “C (the percent of inhibition of NOX by the compounds ranges from 2000 to 49%)”. The inhibition at 1 µM is 50 to 79% at NOX2, at least 80% at NOX1 (1000 nM) and 50 to 79% on NOX4. For the same compound, the inhibition at 0.1 µM on NOX1 (100 nM) is at least 80%. Moreover, the “% Inhibition NOX4” value on NOX4 (100 nM) is recorded as “C (the percent of inhibition of NOX by the compounds ranges from 2000 to 49%)”.

Consider `COc1cccc(-c2[nH]c3cc(OC)c(OC)cc3c(=O)c2O)c1` [Compound 4], for which the inhibition at 0.1 µM is at most 19% against NOX2, 50 to 79% against NOX1 (100 nM) and at most 19% against NOX4. Further, the inhibition at 1 µM is 50 to 79% on NOX2, at least 80% against NOX1 (1000 nM) and at least 80% at NOX4.

Consider `COc1cc2[nH]c(-c3ccccc3N)c(O)c(=O)c2cc1OC` [Compound 30, 2-(2-aminophenyl)-3-hydroxy-6,7-dimethoxyquinolin-4(1H)-one], for which the inhibition at 0.1 µM against NOX2 is 50 to 79%; against NOX1 (100 nM), at most 19%; against NOX4 it was at most 19%. Moreover, the inhibition at 1 µM against NOX2 is at least 80%; on NOX1 (1000 nM), at least 80%; at NOX4, at most 19%.

Regarding `COc1cc2[nH]c(-c3ccccc3OC(F)(F)F)c(O)c(=O)c2cc1OC` [Compound 48], the “% Inhibition NOX2” value on NOX2 (100 nM, 0.1 µM) is on record as “C (the percent of inhibition of NOX by the compounds ranges from 2000 to 49%)”; on NOX2 (1000 nM, 1 µM) it was “B (the percent of inhibition of NOX by the compounds ranges from 50% o to 79% o)”. Further, the “% Inhibition NOX1” value at NOX1 (100 nM) and on NOX1 (1000 nM) was “A (the percent of inhibition of NOX by the compounds is larger than or equals to 80%)” each time. Moreover, the “% Inhibition NOX4” value on NOX4 (100 nM) is recorded as “C (the percent of inhibition of NOX by the compounds ranges from 2000 to 49%)”; at NOX4 (1000 nM, 1 µM), “A (the percent of inhibition of NOX by the compounds is larger than or equals to 80%)”.

Take `CCOc1ccccc1-c1[nH]c2cc(OC)c(OC)cc2c(=O)c1O` [Compound 21]: the inhibition at 0.1 µM against NOX2 is at most 19%; against NOX1 (100 nM), at least 80%. In addition, the inhibition at 1 µM is 50 to 79% at NOX2, at least 80% on NOX1 (1000 nM) and at least 80% against NOX4. In addition, on NOX4 (100 nM), the “% Inhibition NOX4” value is given as “C (the percent of inhibition of NOX by the compounds ranges from 2000 to 49%)”.

For the compound `COc1cc2[nH]c(-c3ccccc3S(C)(=O)=O)c(O)c(=O)c2cc1OC` [Compound 23], the figures for the inhibition at 0.1 µM against NOX2, at NOX1 (100 nM) and against NOX4 were 50 to 79%, at least 80% and 50 to 79%, respectively. Also, the figures for the inhibition at 1 µM on NOX2, at NOX1 (1000 nM) and against NOX4 were at least 80%, at least 80% and 50 to 79%, respectively.

(Values after US11661400B2, “NADPH oxidase inhibitors, pharmaceutical composition comprising the same, and application thereof” (TAIWANJ PHARMACEUTICALS CO., LTD., priority 2018, dated 2023).)
